A short description of data set [1]: Toxicity in nude mouse xenografted with human SK-BR-3 cells assessed as change in globulin level at 8 umol/kg, iv administered every 3 days for 14 days in presence of SMAC peptide. Particulars: in vivo, 336 h, dose 8 µmol/kg, time 14 day. The data set is classed as organism-based. Background: A xenograft is tissue or cells of one species grown in another, often human tumour cells in immunodeficient mice.

The test system of data set [2] is SK-BR-3. Description: Induction of apoptosis in human SK-BR-3 cells assessed as live cells at 1 uM incubated for 24 hrs in presence of SMAC peptide by Annexin V-FITC/PI staining based flow cytometry analysis (reference value: 94.6%). The data set is classed as functional. For orientation: Flow cytometry measures light scatter and fluorescence of single cells or particles in a stream.

Data set [3] concerns SK-BR-3. Description: Induction of apoptosis in human SK-BR-3 cells assessed as early apoptotic cells at 1 uM incubated for 24 hrs in presence of SMAC peptide by Annexin V-FITC/PI staining based flow cytometry analysis (reference value: 2.80%). The data set is classed as functional.
Data set [4] concerns SK-BR-3. The data set is described as follows: Induction of apoptosis in human SK-BR-3 cells assessed as necrotic cells at 1 uM incubated for 24 hrs in presence of SMAC peptide by Annexin V-FITC/PI staining based flow cytometry analysis (reference value: 1.49%). The data set is classed as functional.
The nature of data set [5]: Toxicity in nude mouse xenografted with human SK-BR-3 cells assessed as change in globulin level at 8 umol/kg, iv administered every 3 days for 14 days. The data set is classed as organism-based. To be noted: in vivo, 336 h, dose 8 µmol/kg, time 14 day.
Data set [6] concerns SK-BR-3. The data set is described as follows: Antitumor activity against human SK-BR-3 cells xenografted in nude mouse assessed as inhibition of tumor growth at 8 umol/kg, iv administered every 3 days for 14 days with SMAC peptide and measured every 2 days by vernier caliper analysis. The data set is classed as functional, organism-based. To be noted: dose 8.0 µmol/kg, time 14.0 day.

Data set [7] in a line: Toxicity in nude mouse xenografted with human SK-BR-3 cells assessed as increase in AST level at 8 umol/kg, iv administered every 3 days for 14 days. The data set is classed as organism-based. Particulars: in vivo, 336 h, dose 8 µmol/kg, time 14 day.
Data set [8] deals with SK-BR-3. Description: Induction of apoptosis in human SK-BR-3 cells assessed as early apoptotic cells at 1 uM incubated for 24 hrs by Annexin V-FITC/PI staining based flow cytometry analysis (reference value: 2.80%). The data set is classed as functional.
Data set [9] relates to SK-BR-3. Description: Antitumor activity against human SK-BR-3 cells xenografted in nude mouse assessed as inhibition of tumor growth at 8 umol/kg, iv administered every 3 days for 14 days and measured every 2 days by vernier caliper analysis. The data set is classed as functional, organism-based. Particulars: dose 8.0 µmol/kg, time 14.0 day.
The test system of data set [10] is SK-BR-3. Description: Induction of apoptosis in human SK-BR-3 cells assessed as downregulation of XIAP protein expression incubated for 24 hrs in presence of SMAC peptide by Western blot analysis. The data set is classed as functional, cell-based. A general note: Immunoblotting shows a protein as a band on a membrane.
The nature of data set [11]: Toxicity in nude mouse xenografted with human SK-BR-3 cells assessed as increase in AST level at 8 umol/kg, iv administered every 3 days for 14 days in presence of SMAC peptide. To be noted: in vivo, 336 h, dose 8 µmol/kg, time 14 day. The data set is classed as organism-based.
Data set [12] has as its system SK-BR-3. Description: Induction of apoptosis in human SK-BR-3 cells assessed as downregulation of cIAP1 protein expression incubated for 24 hrs in presence of SMAC peptide by Western blot analysis. The data set is classed as functional, cell-based.
Data set [13] is described as follows: Toxicity in nude mouse xenografted with human SK-BR-3 cells assessed as change in alkaline phosphatase level at 8 umol/kg, iv administered every 3 days for 14 days in presence of SMAC peptide. The data set is classed as organism-based. Particulars: in vivo, 336 h, dose 8 µmol/kg, time 14 day.
Data set [14] in a line: Toxicity in nude mouse xenografted with human SK-BR-3 cells assessed as change in albumin level at 8 umol/kg, iv administered every 3 days for 14 days in presence of SMAC peptide. The data set is classed as organism-based. Particulars: in vivo, 336 h, dose 8 µmol/kg, time 14 day.
A short description of data set [15]: Toxicity in nude mouse xenografted with human SK-BR-3 cells assessed as change in total protein level at 8 umol/kg, iv administered every 3 days for 14 days. The data set is classed as organism-based. To be noted: in vivo, 336 h, dose 8 µmol/kg, time 14 day.
The nature of data set [16]: Toxicity in nude mouse xenografted with human SK-BR-3 cells assessed as increase in creatinine level at 8 umol/kg, iv administered every 3 days for 14 days in presence of SMAC peptide. The data set is classed as organism-based. To be noted: in vivo, 336 h, dose 8 µmol/kg, time 14 day.
The test system of data set [17] is SK-BR-3. Description: Induction of apoptosis in human SK-BR-3 cells assessed as live cells at 1 uM incubated for 24 hrs by Annexin V-FITC/PI staining based flow cytometry analysis (reference value: 94.6%). The data set is classed as functional.
Data set [18] deals with SK-BR-3. The data set is described as follows: Induction of apoptosis in human SK-BR-3 cells assessed as late apoptotic cells at 1 uM incubated for 24 hrs by Annexin V-FITC/PI staining based flow cytometry analysis (reference value: 1.11%). The data set is classed as functional.
Data set [19] deals with SK-BR-3. The data set is described as follows: Induction of apoptosis in human SK-BR-3 cells assessed as downregulation of cIAP1 protein expression incubated for 24 hrs by Western blot analysis. The data set is classed as functional, cell-based.
Data set [20] in a line: Toxicity in nude mouse xenografted with human SK-BR-3 cells assessed as change in total protein level at 8 umol/kg, iv administered every 3 days for 14 days in presence of SMAC peptide. The data set is classed as organism-based. To be noted: in vivo, 336 h, dose 8 µmol/kg, time 14 day.
The nature of data set [21]: Toxicity in nude mouse xenografted with human SK-BR-3 cells assessed as change in albumin level at 8 umol/kg, iv administered every 3 days for 14 days. The data set is classed as organism-based. To be noted: in vivo, 336 h, dose 8 µmol/kg, time 14 day.
Data set [22] is described as follows: Toxicity in nude mouse xenografted with human SK-BR-3 cells assessed as increase in blood urea nitrogen level at 8 umol/kg, iv administered every 3 days for 14 days in presence of SMAC peptide. The data set is classed as organism-based. Particulars: in vivo, 336 h, dose 8 µmol/kg, time 14 day.
In data set [23] the test system is SK-BR-3. The data set is described as follows: Induction of apoptosis in human SK-BR-3 cells assessed as late apoptotic cells at 1 uM incubated for 24 hrs in presence of SMAC peptide by Annexin V-FITC/PI staining based flow cytometry analysis (reference value: 1.11%). The data set is classed as functional.
Data set [24] in a line: Toxicity in nude mouse xenografted with human SK-BR-3 cells assessed as change in alkaline phosphatase level at 8 umol/kg, iv administered every 3 days for 14 days. The data set is classed as organism-based. Particulars: in vivo, 336 h, dose 8 µmol/kg, time 14 day.
Data set [25] deals with SK-BR-3. Description: Induction of apoptosis in human SK-BR-3 cells assessed as downregulation of XIAP protein expression incubated for 24 hrs by Western blot analysis. The data set is classed as functional, cell-based.
The test system of data set [26] is SK-BR-3. Description: Induction of apoptosis in human SK-BR-3 cells assessed as necrotic cells at 1 uM incubated for 24 hrs by Annexin V-FITC/PI staining based flow cytometry analysis (reference value: 1.49%). The data set is classed as functional.
A short description of data set [27]: Toxicity in nude mouse xenografted with human SK-BR-3 cells assessed as increase in ALT level at 8 umol/kg, iv administered every 3 days for 14 days in presence of SMAC peptide. Particulars: in vivo, 336 h, dose 8 µmol/kg, time 14 day. The data set is classed as organism-based.
A short description of data set [28]: Toxicity in nude mouse xenografted with human SK-BR-3 cells assessed as increase in ALT level at 8 umol/kg, iv administered every 3 days for 14 days. The data set is classed as organism-based. Particulars: in vivo, 336 h, dose 8 µmol/kg, time 14 day.
The test system of data set [29] is MDA-MB-231. The data set is described as follows: cells. To be noted: Homo sapiens, MDA-MB-231, 48 h.
Description: Cytotoxicity against HER-negative human MDA-MB-231 cells incubated for 48 hrs by CCK-8 assay
In data set [30] the test system is SK-OV-3. Description: cells. Particulars: Homo sapiens, SK-OV-3, 48 h.
Description: Cytotoxicity against HER-positive human SK-OV-3 cells incubated for 48 hrs by CCK-8 assay
The nature of data set [31]: Cytotoxicity against HER-negative human MCF-10A cells incubated for 48 hrs by CCK-8 assay. The data set is classed as toxicity, cell-based.
Data set [32] deals with SK-BR-3. The data set is described as follows: cells. To be noted: Homo sapiens, SK-BR-3, 48 h.
Description: Cytotoxicity against HER-positive human SK-BR-3 cells incubated for 48 hrs by CCK-8 assay
In data set [33] the test system is NCI-N87. The data set is described as follows: cells. Particulars: Homo sapiens, NCI-N87, 48 h.
Description: Cytotoxicity against HER-positive human NCI-N87 cells incubated for 48 hrs by CCK-8 assay

Activity calls are given as the source filed them. The calls are words filed in the database; no cut-off is given here.

For the compound `CCC1(OC(=O)OCCSSC[C@@H](N)C(=O)N[C@@H](CC(N)=O)C(=O)N2CCC[C@H]2C(=O)N[C@@H](CC(N)=O)C(=O)N[C@@H](Cc2c[nH]c3ccccc23)C(=O)NCC(=O)N[C@@H](CCCNC(=N)N)C(=O)N[C@@H](CO)C(=O)N[C@@H](Cc2c[nH]c3ccccc23)C(=O)N[C@@H](Cc2ccc(O)cc2)C(=O)N[C@@H](CC(N)=O)C(=O)N[C@@H](CCC(N)=O)C(=O)N[C@@H](CCCNC(=N)N)C(=O)N[C@@H](Cc2ccccc2)C(=O)N[C@@H](CCCCN)C(=O)N[C@@H](CCCCN)C(N)=O)C(=O)OCc2c1cc1n(c2=O)Cc2cc3ccccc3nc2-1` (stereo partly drawn), the Activity entry in [1] was “Non-Toxic”; in data set [2] it was 74.9%; in data set [3], 16.8%; in data set [4] it was 1.34%; in data set [5] it was “Non-Toxic”; in data set [7] it was “Toxic”. Also, the Activity in data set [8] is 15.1%; in data set [11], “Toxic”; in data set [13] it was “Non-Toxic”; in data set [14] it was “Non-Toxic”; in [15], “Non-Toxic”; in data set [16] it was “Toxic”. The Activity is 78.8% in data set [17]; 4.89% in [18]; “Non-Toxic” in data set [20]; “Non-Toxic” in [21]; “Toxic” in [22]; 6.9% in data set [23]. In addition, the Activity entry in data set [24] is given as “Non-Toxic”; in data set [26] it was 1.23%; in [27], “Toxic”; in data set [28], “Toxic”. In addition, the outcome in [6], in data set [9], in data set [10] and in data set [25] was Active. Further, the outcome in data set [12] and in data set [19] was inactive.
What is called IC50 is the concentration that inhibits the measured activity by half. A higher IC50 goes with lower potency. Regarding `CC[C@@]1(O)C(=O)OCc2c1cc1n(c2=O)Cc2cc3ccccc3nc2-1` [CAMPTOTHECIN], the Activity entry in [5] is recorded as “Non-Toxic”; in data set [7], “Toxic”; in data set [8], 27.3%; in data set [15], “Non-Toxic”; in data set [17], 54.9%; in data set [18] it was 16.9%. For the same compound, the Activity entry is recorded as “Non-Toxic” in data set [21], “Non-Toxic” in data set [24], 0.94% in [26] and “Toxic” in data set [28]. Besides, the concentration for half-maximal inhibition (IC50) amounted to 530 nM in data set [29], 4070 nM in data set [30], 380 nM in data set [32] and 2070 nM in data set [33]. In addition, in data set [31], the IC50 at 48 h worked out at 3020 nM.

(Values after ChEMBL document CHEMBL5537151, “Design, synthesis and bioactivity evaluation of novel fusion peptides and their CPT conjugates inducing effective anti-tumor responses on HER2 positive tumors” (Eur J Med Chem, 2024).)
